Laboratory results reported in ChEMBL document CHEMBL5614384, “Synthesis and antiproliferative activity of (-)-cleistenolide, (6S)-cleistenolide and 4-substituted cleistenolide analogues” (Bioorg Med Chem, 2024).
pIC50: −log10 of the molar value.

Key:
MCF7 [1] = assay: Potency index, ratio of cleistenolide IC50 to test compound IC50 for antiproliferative activity against human MCF7 cells assessed as inhibition of cell growth incubated for 72 hrs by MTT assay; type: functional
[2] = (§1) Cytotoxicity against human MRC5 cells assessed as inhibition of cell growth incubated for 72 hrs by MTT assay; type: toxicity, cell-based; conditions: human, MRC5 cells
HeLa [3] = assay: Antiproliferative activity against human HeLa cells assessed as inhibition of cell growth incubated for 72 hrs by MTT assay; type: functional, cell-based
Raji [4] = assay: Antiproliferative activity against human Raji cells assessed as inhibition of cell growth incubated for 72 hrs by MTT assay; type: functional, cell-based
K562 [5] = assay: Antiproliferative activity against human K562 cells assessed as inhibition of cell growth incubated for 72 hrs by MTT assay; type: functional, cell-based; conditions: K562, 72 h
MDA-MB-231 = assay: Antiproliferative activity against estrogen receptor negative human MDA-MB-231 cells assessed as inhibition of cell growth incubated for 72 hrs by MTT assay; type: functional, cell-based; conditions: MDA-MB-231, 72 h
MCF7 [6] = assay: Antiproliferative activity against estrogen receptor positive human MCF7 cells assessed as inhibition of cell growth incubated for 72 hrs by MTT assay; type: functional, cell-based; conditions: MCF7, 72 h
A549 = assay: Antiproliferative activity against human A549 cells assessed as inhibition of cell growth incubated for 72 hrs by MTT assay; type: functional, cell-based; conditions: A549, 72 h
HL-60 = assay: Antiproliferative activity against human HL-60 cells assessed as inhibition of cell growth incubated for 72 hrs by MTT assay; type: functional, cell-based; conditions: HL-60, 72 h
Jurkat = assay: Antiproliferative activity against human Jurkat cells assessed as inhibition of cell growth incubated for 72 hrs by MTT assay; type: functional, cell-based
K562 [7] = assay: Potency index, ratio of cleistenolide IC50 to test compound IC50 for antiproliferative activity against human K562 cells assessed as inhibition of cell growth incubated for 72 hrs by MTT assay; type: functional
HeLa [8] = assay: Potency index, ratio of cleistenolide IC50 to test compound IC50 for antiproliferative activity against human HeLa cells assessed as inhibition of cell growth incubated for 72 hrs by MTT assay; type: functional
Raji [9] = assay: Potency index, ratio of cleistenolide IC50 to test compound IC50 for antiproliferative activity against human Raji cells assessed as inhibition of cell growth incubated for 72 hrs by MTT assay; type: functional
MRC5 = assay: as §1; type: toxicity, cell-based; conditions: mrc5

SMILES	Ratio IC50 (MCF7 [1])	IC50 at 72 h [2] [µM]	pIC50 (HeLa [3])	pIC50 (Raji [4])	pIC50 (K562 [5])	pIC50 (MDA-MB-231)	pIC50 (MCF7 [6])	pIC50 (A549)	pIC50 (HL-60)	pIC50 (Jurkat)	Ratio IC50 (K562 [7])	Ratio IC50 (HeLa [8])	Ratio IC50 (Raji [9])	pIC50 (MRC5)
CC(=O)O[C@H](COC(=O)c1ccccc1)[C@H]1OC(=O)C=C[C@H]1OC(=O)C(c1ccccc1)c1ccccc1	>9	> 100	5.01	4.85	5.20	4.75	5.55	4.96	5.33	4.84				
CC(=O)O[C@H](COC(=O)c1ccccc1)[C@H]1OC(=O)C=C[C@H]1O[Si](C)(C)C(C)(C)C		> 100	5.00	4.72	5.17	4.45	5.38	4.92	4.93	4.78				
CC(=O)OC[C@@H](OC(C)=O)[C@H]1OC(=O)C=C[C@H]1OCc1ccccc1		> 100	5.21	4.93	5.95	4.79	4.81	4.63	5.86	4.72	5			
CC(=O)O[C@@H](COC(=O)c1ccccc1)[C@H]1OC(=O)C=C[C@H]1OC(C)=O		98.2	5.17	4.88	5.25	4.62	4.82	4.79	5.01	4.81				
COc1ccc(/C=C/C(=O)O[C@@H]2C=CC(=O)O[C@@H]2[C@@H](COC(=O)c2ccccc2)OC(C)=O)cc1OC		> 100	5.06	4.58	5.34	4.80	5.20	4.87	5.24	4.65				
CC(=O)O[C@H](COC(=O)c1ccccc1)[C@H]1OC(=O)C=C[C@H]1OC(=O)c1c(Cl)cc(Cl)cc1Cl		> 100	5.06	4.63	4.93	4.63	4.55	5.30	4.64	5.03				
CC1(C)O[C@H]2O[C@@H]3C=CC(=O)O[C@@H]3[C@H]2O1		> 100	5.22	4.53	5.47	4.61	5.08	4.78	4.65	4.57				
O=C1C=C[C@@H](OCc2ccccc2)[C@@H]([C@@H](COC(=O)c2ccccc2)OCc2ccccc2)O1		> 100	5.08	4.72	6.17	4.72	5.23	4.89	5.48	4.92	>10			
CC(=O)O[C@H](COC(=O)c1ccccc1)[C@H]1OC(=O)C=C[C@H]1OS(=O)(=O)c1ccc(C)cc1		> 100	4.80	4.72	5.35	4.83	4.95	4.91	4.68	4.58				
CC(=O)OC[C@@H](O)[C@H]1OC(=O)C=C[C@H]1O		> 100	5.27	4.70	5.93	4.34	5.34	4.90	5.02	4.76	5			
CC(=O)O[C@H](COC(=O)c1ccccc1)[C@H]1OC(=O)C=C[C@H]1O[Si](c1ccccc1)(c1ccccc1)C(C)(C)C		> 100	5.47	4.60	5.23	5.08	5.03	4.51	5.25	4.71		>2		
O=C1C=C[C@@H](O)[C@@H]([C@@H](O)COC(=O)c2ccccc2)O1		> 100	5.33	4.95	5.91	4.85	4.98	4.70	4.91	4.81	5			
CC(=O)O[C@H](COC(=O)c1ccccc1)[C@H]1OC(=O)C=C[C@H]1OC(=O)/C=C/c1ccccc1		> 100	5.15	5.48	6.12	5.37	4.65	5.07	5.20	4.93	>10		>10	
COc1ccc(/C=C/C(=O)O[C@@H]2C=CC(=O)O[C@@H]2[C@@H](COC(=O)c2ccccc2)OC(C)=O)cc1		> 100	4.81	4.59	5.89	4.57	4.89	4.38	4.81	4.62	5			
CC(=O)O[C@H](COC(=O)c1ccccc1)[C@H]1OC(=O)C=C[C@H]1OC(=O)/C=C/c1ccc(F)cc1		> 100	4.75	4.58	5.17	4.75	5.28	4.06	4.79	4.54				
CC(=O)O[C@H](COC(=O)c1ccccc1)[C@H]1OC(=O)C=C[C@H]1OS(C)(=O)=O	~8		4.85	4.77	5.06	4.83	5.49	4.95	5.44	4.82				< 4.00
COc1cccc(C(=O)O[C@@H]2C=CC(=O)O[C@@H]2[C@@H](COC(=O)c2ccccc2)OC(C)=O)c1		> 100	5.03	4.60	5.80	4.59	5.06	4.92	5.77	4.60	5			
CC(=O)OC[C@@H](OC(C)=O)[C@H]1OC(=O)C=C[C@H]1OC(=O)c1ccccc1		> 100	4.97	4.97	5.58	4.80	5.30	4.64	5.36	4.74				
CC(=O)O[C@@H]1C=CC(=O)O[C@@H]1[C@@H](COC(=O)c1ccccc1)OC(C)=O		> 100												
